Here are results for 10 compounds from PubChem BioAssay (NCI).

Some test systems named below: CAKI-1 renal; HL-60(TB) leukemia; SK-OV-3 ovarian; UACC-62 melanoma; EKVX NSCLC; CCRF-CEM leukemia; NCI-H226 lung; HT29 colon; 786-0 renal; LOX IMVI melanoma.
Common to all, as to assay: NCI tumour cell line growth inhibition, 48 h

Values joined by “and” are separate entries in the source; they are usually repeats but may differ in a detail not shown here. Equal values may be shown once.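 The compound was tested at five concentrations on cells cultured in 96-well plates, with a 48-hour exposure period. Abbreviation: GI50, concentration required for 50% inhibition of growth. At the TGI there is no net growth.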 Some results are limits rather than exact numbers.

`CN(CCCl)c1ccc(/C=C/C2=[N+](C)c3ccccc3C2(C)C)cc1`: the GI50 was 17.5 µM with CAKI-1 renal; 0.265 µM in the experiment on HL-60(TB) leukemia; 0.713 µM with SK-OV-3 ovarian; 0.482 µM in the experiment with UACC-62 melanoma; 0.863 µM in the experiment on EKVX NSCLC; 0.151 µM in the experiment on CCRF-CEM leukemia. For the same compound, the GI50 in the experiment with NCI-H226 lung was 1.21 µM; in the experiment on HT29 colon, 0.307 µM; in the experiment on 786-0 renal, 3.9 µM. The TGI in the experiment with CAKI-1 renal came out at 43.6 µM; in the experiment on HL-60(TB) leukemia it was 0.756 µM; with SK-OV-3 ovarian it was 5.41 µM; in the experiment with UACC-62 melanoma it was 7.68 µM; in the experiment with EKVX NSCLC it was 14.9 µM; in the experiment on CCRF-CEM leukemia it was 5.75 µM. For the same compound, the values for the TGI with NCI-H226 lung, in the experiment on HT29 colon and in the experiment with 786-0 renal were 14.9 µM, 11.2 µM and 15.9 µM, respectively.

Consider `Nc1nc(N)c2nc(CNc3ccc(C(=O)NC(CCCNC(=O)c4ccccc4C(=O)O)C(=O)O)cc3)cnc2n1` (centres undefined), for which the GI50 in the experiment on CAKI-1 renal is 0.00224 µM; in the experiment with HL-60(TB) leukemia, 0.00049 µM; with UACC-62 melanoma it was < 0.01 µM and 0.00129 µM; in the experiment with CCRF-CEM leukemia, 0.00148 µM; in the experiment with NCI-H226 lung it was over 100 µM; in the experiment with HT29 colon, 0.00102 µM. Further, the GI50 in the experiment with LOX IMVI melanoma was 0.000373 µM; in the experiment with 786-0 renal, 0.00054 µM. In addition, the TGI in the experiment on CAKI-1 renal, with HL-60(TB) leukemia, in the experiment on UACC-62 melanoma, with EKVX NSCLC, in the experiment with CCRF-CEM leukemia and in the experiment with NCI-H226 lung was over 100 µM each time. For the same compound, the TGI in the experiment on HT29 colon, in the experiment on LOX IMVI melanoma and in the experiment with 786-0 renal was over 100 µM in each case.

Regarding `COc1ccc(-c2cc(-c3cc(OC)c(OC)c(OC)c3)c(C#N)c(N3CCOCC3)n2)cc1O`, the GI50 in the experiment on CAKI-1 renal is 0.866 µM; with HL-60(TB) leukemia it was 1.34 µM; in the experiment on SK-OV-3 ovarian, 14.8 µM; in the experiment on UACC-62 melanoma it was 60.2 µM; in the experiment with EKVX NSCLC, 8.95 µM; in the experiment with CCRF-CEM leukemia, 6.46 µM. The GI50 with NCI-H226 lung was over 100 µM; in the experiment with HT29 colon, 10.3 µM; in the experiment on LOX IMVI melanoma it was 0.238 µM; in the experiment with 786-0 renal it was 51.2 µM. The TGI with CAKI-1 renal is over 100 µM; with HL-60(TB) leukemia it was 3.87 µM; with SK-OV-3 ovarian, over 100 µM; in the experiment with UACC-62 melanoma, over 100 µM; in the experiment with EKVX NSCLC, over 100 µM; in the experiment on CCRF-CEM leukemia, over 77.9 µM. Also, the TGI is over 100 µM in the experiment with NCI-H226 lung, over 100 µM in the experiment on HT29 colon, 11.7 µM in the experiment with LOX IMVI melanoma and over 100 µM with 786-0 renal.

As to `CNC1C(O)C(OC2C(N)CC(N)C(OC3OC(C(C)O)C(O)C(O)C3N)C2O)OCC1(C)O` (centres undefined), the TGI with CAKI-1 renal, in the experiment on HL-60(TB) leukemia, in the experiment on SK-OV-3 ovarian, in the experiment with UACC-62 melanoma, in the experiment on EKVX NSCLC and with CCRF-CEM leukemia was over 100 µM throughout. The TGI in the experiment with NCI-H226 lung, with HT29 colon, with LOX IMVI melanoma and in the experiment with 786-0 renal was over 100 µM in each case.

In the case of `O=C(CCCCCCSc1nc(-c2ccc(Cl)cc2)cc(-c2ccc(Cl)cc2)n1)NO`, the GI50 in the experiment on CAKI-1 renal was 1.34 µM; in the experiment with HL-60(TB) leukemia it was 1.97 µM; in the experiment with SK-OV-3 ovarian, 1.32 µM; in the experiment with UACC-62 melanoma it was 1.26 µM; in the experiment on EKVX NSCLC, 2.6 µM; in the experiment on CCRF-CEM leukemia it was 1.25 µM. For the same compound, the GI50 in the experiment with NCI-H226 lung is 1.71 µM; with HT29 colon, 1.41 µM; with LOX IMVI melanoma, 1.28 µM; in the experiment on 786-0 renal, 1.59 µM. Also, the TGI is 4.76 µM in the experiment on CAKI-1 renal; over 50 µM in the experiment on HL-60(TB) leukemia; 4.19 µM in the experiment on SK-OV-3 ovarian; 4.18 µM in the experiment on UACC-62 melanoma; 39.6 µM with EKVX NSCLC; over 50 µM with CCRF-CEM leukemia. For the same compound, the TGI in the experiment with NCI-H226 lung is 17.5 µM; with HT29 colon, 7.46 µM; in the experiment with LOX IMVI melanoma it was 3.75 µM; in the experiment with 786-0 renal, 6.32 µM.

Turning to `O=C1C2c3[nH]c4ccccc4c3[C@@H]3CCCCC3C2C(=O)N1c1ccccc1` (some centres undefined), the TGI in the experiment on HL-60(TB) leukemia turned out to be 47.5 µM; in the experiment with SK-OV-3 ovarian it was 72.5 µM; in the experiment with UACC-62 melanoma it was 38.5 µM; in the experiment on EKVX NSCLC, 37.5 µM; in the experiment on CCRF-CEM leukemia, 80.1 µM; in the experiment on NCI-H226 lung, 42.2 µM. Further, the TGI in the experiment with HT29 colon turned out to be 37 µM; in the experiment on LOX IMVI melanoma, 29.8 µM; with 786-0 renal, 37.5 µM.

In the case of `C=C1C(=O)O[C@H]2[C@H]1CC/C(COC(=O)c1ccc(C#N)cc1)=C\CC[C@@]1(C)O[C@@H]21`, the GI50 was 1.67 µM in the experiment on HL-60(TB) leukemia; 15.8 µM in the experiment on SK-OV-3 ovarian; 1.95 µM in the experiment on UACC-62 melanoma; 2.26 µM in the experiment with EKVX NSCLC; 0.906 µM with CCRF-CEM leukemia; 2.26 µM in the experiment with NCI-H226 lung. Besides, the GI50 with HT29 colon is 1.62 µM; in the experiment with LOX IMVI melanoma it was 1.56 µM; in the experiment with 786-0 renal it was 1.92 µM. The TGI with HL-60(TB) leukemia came out at 7.47 µM; in the experiment with SK-OV-3 ovarian, 29.2 µM; in the experiment on UACC-62 melanoma it was 4.33 µM; in the experiment with EKVX NSCLC, 6.85 µM; in the experiment with CCRF-CEM leukemia, 6.47 µM; in the experiment on NCI-H226 lung it was 7.6 µM. Further, the TGI was found to be 4.02 µM in the experiment on HT29 colon, 2.99 µM in the experiment with LOX IMVI melanoma and 3.99 µM in the experiment with 786-0 renal.

As for `COC12CC(=O)C(C(C)=O)=C(O)C1(C)c1c(OC(C)=O)c(C)c(O)c(C(C)=O)c1O2` (centres undefined), the TGI is 54.1 µM in the experiment with CAKI-1 renal; 42.5 µM with HL-60(TB) leukemia; 23.4 µM in the experiment with UACC-62 melanoma; 93.6 µM in the experiment on EKVX NSCLC; 66.8 µM with CCRF-CEM leukemia; 65.7 µM in the experiment with NCI-H226 lung. Also, the TGI with HT29 colon was 78.7 µM; with LOX IMVI melanoma, over 100 µM; in the experiment on 786-0 renal, over 100 µM.

Regarding `CC1=C(c2cc(C(=O)Nc3cccc(C(F)(F)F)c3)ncn2)Sc2ccccc2N1`, the TGI in the experiment on CAKI-1 renal, in the experiment with HL-60(TB) leukemia, with SK-OV-3 ovarian, in the experiment on UACC-62 melanoma, with EKVX NSCLC and with CCRF-CEM leukemia was over 100 µM in each case. Moreover, the TGI in the experiment with NCI-H226 lung, with HT29 colon and in the experiment on 786-0 renal was over 100 µM each time.

Consider `O=C(NNC(=O)c1cc(/C=C/c2cccc([N+](=O)[O-])c2)[nH]c(=S)n1)Nc1ccc(Cl)cc1`, for which the TGI with HL-60(TB) leukemia is 84.1 µM; with SK-OV-3 ovarian it was over 100 µM; in the experiment on UACC-62 melanoma, over 100 µM; in the experiment with EKVX NSCLC it was over 100 µM; in the experiment with CCRF-CEM leukemia, 51.2 µM; with NCI-H226 lung, over 100 µM. Besides, the TGI in the experiment with HT29 colon is over 100 µM; in the experiment with LOX IMVI melanoma it was 37.3 µM; with 786-0 renal it was over 100 µM.
